By IC50 is commonly meant the concentration that gives 50% inhibition. A high value points to weaker potency in that assay. Usually inhibition stands for the change of the read-out against control, counted positive when it falls.

SMILES strings stand for the structures. Active and inactive are the calls of the source. The calls are words filed in the database; no cut-off is given here.

Our source for the IC50 and inhibition values is ChEMBL document CHEMBL4000242, “Discovery of furan carboxylate derivatives as novel inhibitors of ATP-citrate lyase via virtual high-throughput screening” (Bioorg Med Chem Lett, 2017).

One assay concerns the target T1, ATP-citrate synthase (Homo sapiens, UniProt P53396).
T1 sequence (P53396 whole entry): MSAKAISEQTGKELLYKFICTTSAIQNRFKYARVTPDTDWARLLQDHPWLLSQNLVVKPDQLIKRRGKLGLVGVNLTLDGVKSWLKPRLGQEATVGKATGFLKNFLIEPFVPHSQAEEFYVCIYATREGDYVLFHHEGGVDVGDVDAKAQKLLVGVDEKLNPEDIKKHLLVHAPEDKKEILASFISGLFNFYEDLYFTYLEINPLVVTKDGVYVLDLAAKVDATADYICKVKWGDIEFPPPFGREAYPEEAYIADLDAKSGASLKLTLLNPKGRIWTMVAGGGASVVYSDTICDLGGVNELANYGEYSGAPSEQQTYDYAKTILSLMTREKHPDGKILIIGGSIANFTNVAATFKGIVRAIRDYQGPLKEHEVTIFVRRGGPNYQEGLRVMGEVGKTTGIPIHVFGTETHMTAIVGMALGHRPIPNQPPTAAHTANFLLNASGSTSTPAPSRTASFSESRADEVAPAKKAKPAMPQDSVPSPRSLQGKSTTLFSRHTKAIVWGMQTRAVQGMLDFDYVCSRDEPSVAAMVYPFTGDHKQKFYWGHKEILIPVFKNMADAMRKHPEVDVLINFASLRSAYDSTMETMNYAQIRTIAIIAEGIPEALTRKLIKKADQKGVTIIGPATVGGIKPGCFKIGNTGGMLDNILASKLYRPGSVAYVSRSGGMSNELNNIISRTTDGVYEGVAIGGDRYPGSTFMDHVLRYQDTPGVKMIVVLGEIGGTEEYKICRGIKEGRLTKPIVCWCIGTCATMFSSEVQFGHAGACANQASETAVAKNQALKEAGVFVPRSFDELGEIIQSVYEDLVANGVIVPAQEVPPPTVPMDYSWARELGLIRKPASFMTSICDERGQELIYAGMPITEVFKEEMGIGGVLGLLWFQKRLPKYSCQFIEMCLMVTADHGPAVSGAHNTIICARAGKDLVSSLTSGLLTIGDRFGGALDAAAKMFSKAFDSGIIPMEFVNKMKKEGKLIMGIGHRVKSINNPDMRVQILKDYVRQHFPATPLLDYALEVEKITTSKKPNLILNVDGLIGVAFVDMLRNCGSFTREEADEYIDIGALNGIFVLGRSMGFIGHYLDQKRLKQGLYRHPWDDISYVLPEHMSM
As to the kind of experiment: Inhibition of ATP citrate lyase (unknown origin) using sodium citrate as substrate by ADP-Glo luminescence assay. For orientation: In ADP-Glo the light output rises with the ADP produced.

Assay [1] addresses T2, ATP-citrate synthase (Homo sapiens) (UniProt P53396).
T2 sequence (whole entry): T1 sequence (P53396 whole entry)
Description: Inhibition of ATP citrate lyase (unknown origin) at 10 uM using sodium citrate as substrate in presence of CoA/ATP by ADP-Glo luminescence assay relative to control.

Assay [2] has as its target T2, ATP-citrate synthase (Homo sapiens). As to the kind of experiment: Inhibition of ATP citrate lyase (unknown origin) at 100 uM using sodium citrate as substrate in presence of CoA/ATP by ADP-Glo luminescence assay relative to control.
For assay [3] the target is unchanged. Description: Competitive inhibition of ATP citrate lyase (unknown origin) using sodium citrate as substrate by ADP-Glo luminescence assay.

On to `COc1ccc(-c2ccccc2)cc1NS(=O)(=O)c1cc(Cl)cc(Cl)c1O`, for which the midpoint of inhibition against ATP-citrate synthase, the IC50, lay at 0.377 µM. With `CCc1ccc(S(=O)(=O)Nc2cc3c(C(=O)O)c(C)oc3c3ccccc23)cc1`, the inhibition in assay [1] stood at 42%; in assay [2], 97%. For the same molecule, the midpoint of inhibition at ATP-citrate synthase, the IC50, lay at 13.8 µM. Turning to `Cc1oc2c(cc(NS(=O)(=O)c3ccc(F)cc3)c3ccccc32)c1C(=O)O`, the inhibition amounted to 28% in assay [1] and 95% in assay [2].

As for `O=C(O)c1ccc(COc2ccc3c(c2)oc(=O)c2ccccc23)o1`, the inhibition in assay [1] was determined as 9%; in assay [2], 49%. Turning to `Cc1oc(C(=O)O)cc1COc1ccc2c(C)c(Cc3ccccc3)c(=O)oc2c1`, the inhibition in assay [1] came to 45%; in assay [2], 101%. Further, inhibition at ATP-citrate synthase was half-maximal at 11.9 µM (IC50). In the case of `Cc1c(OCc2ccc(C(=O)O)o2)ccc2c3c(c(=O)oc12)CCCC3`, the inhibition in assay [1] was determined as 18%; in assay [2] it was 88%. Turning to `Cc1oc(C(=O)O)cc1COc1ccc2c(c1)oc(=O)c1ccccc12`, the values for the inhibition in assay [1] and in assay [2] were 3% and 64%, respectively. For `CCCCCCc1cc2c3c(c(=O)oc2cc1OCc1cc(C(=O)O)oc1C)CCCC3`, the values for the inhibition in assay [1] and in assay [2] were 95% and 100%, respectively. For `Cc1oc(C(=O)O)cc1COc1ccc2c3c(c(=O)oc2c1C)CCCC3`, in that order: 17% and 90%. With `O=C(O)C[C@@](O)(C(=O)O)[C@H](O)C(=O)O`, in assay [3], the inhibition result was “Active”. Take `Cc1ccc(S(=O)(=O)Nc2cc3c(C(=O)O)c(C)oc3c3ccccc23)cc1`: the inhibition came to 12% in assay [1] and 42% in assay [2]. Consider `O=C(O)C[C@@](O)(C[C@H](O)CCCCCCc1ccc(Cl)cc1Cl)C(=O)O`, for which the inhibition entry in assay [3] is “Active”. As for `Cc1oc2c(cc(NS(=O)(=O)c3ccc(C(C)(C)C)cc3)c3ccccc32)c1C(=O)O`, the inhibition came to 16% in assay [1] and 59% in assay [2]. For `Cc1oc(C(=O)O)cc1COc1ccc2c(oc(=O)c3ccccc32)c1C`, the values for the inhibition in assay [1] and in assay [2] were 32% and 84%, respectively.

For the molecule `Cc1oc2ccc(OC(C(=O)O)c3ccccc3)cc2c1C(=O)O` (centres undefined), the figures for the inhibition in assay [1] and in assay [2] were 6% and 9%, respectively.
